Test results published in paper PMC12514245, “Impaired migration and lung invasion of human melanoma by a novel small molecule targeting the transmembrane domain of death receptor p75^NTR” (EMBO Molecular Medicine, 2025).
Values joined by “and” are separate entries in the source; they are usually repeats but may differ in a detail not shown here. Equal entries are not always repeated. “Also recorded” adds a separate entry of the source.

Tests used:
p75^NTR TMD P253G = biological target: T1, p75^NTR TMD P253G (Homo sapiens, UniProt P08138, P253G); assay: AraTM assay, P253G mutant p75NTR TMD; assay type: cell-based; conditions: for GFP/OD630, Mean / GFP/OD630, individual replicates: P253G
T1 construct: Comparison of wild-type (WT) p75^NTR TMD and I252A, P253G and V254A mutants in the AraTM assay; expressed in transfected cells; host or cells: E. coli AS19 (LPS-negative)

p75^NTR TMD V254A = biological target: T2, p75^NTR TMD V254A (Homo sapiens, UniProt P08138, V254A); assay: AraTM assay, V254A mutant p75NTR TMD; assay type: cell-based; conditions: for GFP/OD630, Mean / GFP/OD630, individual replicates: V254A;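 as to GFP/OD630, Mean: normalised to the no-drug GFP/OD630 signal set at 100%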;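 as to GFP/OD630, individual replicates: normalised to the no-drug GFP/OD630 signal set at 100%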
T2 construct: Comparison of wild-type (WT) p75^NTR TMD and I252A, P253G and V254A mutants in the AraTM assay; expressed in transfected cells; host or cells: E. coli AS19 (LPS-negative)
T2 sequence (P08138 250-275 V254A): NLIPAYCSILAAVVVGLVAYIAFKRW

p75^NTR TMD = biological target: T3, p75^NTR TMD (Homo sapiens, UniProt P08138); assay: AraTM assay, wild-type p75NTR TMD (GFP/OD630); assay type: cell-based
T3 sequence (P08138 250-275 limits assumed): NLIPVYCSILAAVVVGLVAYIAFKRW

A875 shp75 cells = assay: Wound healing cell motility assay, A875 shp75; assay type: cell-based, human; conditions: A875 shp75, 1uM
Protocol: For wound healing assay, cells were grown until confluency and subjected to a wound across the cell mono-layer. Cells were then incubated with serum-free media either with DMSO or a small molecule (with or without 5 µM Q_VD_poH) and imaged at specific time-points. Cell migration is reflected as fold change in wound area over time.

[1] = wt, compound 10 μM, Figure 5C-E
[2] = wt, compound 20 μM, Figure 5C-E
[3] = wt, compound 30 μM, Figure 5C-E
[4] = wt, compound 40 μM, Figure 5C-E

T1 sequence (P08138 251-272 P253G limits assumed): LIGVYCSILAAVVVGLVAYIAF

## Cc1cccc(-c2cncc(Nc3ccc(Br)c(Cl)c3Cl)n2)c1C [Np75-4A22]
p75^NTR TMD P253G
  effect of Pro253 mutation on compound activity in AraTM assay: unaffected
p75^NTR TMD P253G; compound 5 μM
  GFP/OD630, Mean: 0.71
  GFP/OD630, individual replicates: 0.58 and 0.64 and 0.9
p75^NTR TMD P253G; compound 10 μM
  GFP/OD630, Mean: 0.74
  GFP/OD630, individual replicates: 0.6 and 0.87 and 0.74
p75^NTR TMD P253G; compound 20 μM
  GFP/OD630, Mean: 0.58
  GFP/OD630, individual replicates: 0.43 and 0.66 (2×)
p75^NTR TMD P253G; compound 30 μM
  GFP/OD630, Mean: 0.52
  GFP/OD630, individual replicates: 0.72 and 0.32 and 0.53
p75^NTR TMD P253G; compound 40 μM
  GFP/OD630, Mean: 0.39
  GFP/OD630, individual replicates: 0.36 (2×) and 0.44
p75^NTR TMD V254A
  effect of Val254 mutation on compound activity in AraTM assay: unaffected
p75^NTR TMD V254A; compound 5 μM
  GFP/OD630, Mean: 0.83
  GFP/OD630, individual replicates: 0.98 and 0.74 and 0.77
p75^NTR TMD V254A; compound 10 μM
  GFP/OD630, Mean: 0.64
  GFP/OD630, individual replicates: 0.63 (2×) and 0.65
p75^NTR TMD V254A; compound 20 μM
  GFP/OD630, Mean: 0.61
  GFP/OD630, individual replicates: 0.46 and 0.62 and 0.74
p75^NTR TMD V254A; compound 30 μM
  GFP/OD630, Mean: 0.47
  GFP/OD630, individual replicates: 0.41 and 0.51 and 0.50
p75^NTR TMD V254A; compound 40 μM
  GFP/OD630, Mean: 0.54
  GFP/OD630, individual replicates: 0.57 and 0.51 and 0.53
p75^NTR TMD
  IC50 in the AraTM assay, compared with Div17E5: improved IC50 compared to Div17E5
p75^NTR TMD; compound 2 μM, Figure 5B
  GFP/OD630, Mean: 0.98
  GFP/OD630, individual replicates: 0.97 and 0.96 and 1.01
p75^NTR TMD; compound 4 μM, Figure 5B
  GFP/OD630, Mean: 0.58
  GFP/OD630, individual replicates: 0.59 and 0.58 and 0.56
p75^NTR TMD; compound 6 μM, Figure 5B
  GFP/OD630, Mean: 0.46
  GFP/OD630, individual replicates: 0.46 and 0.49 and 0.42
p75^NTR TMD; compound 8 μM, Figure 5B
  GFP/OD630, Mean: 0.41
  GFP/OD630, individual replicates: 0.41 and 0.43 and 0.37
p75^NTR TMD; compound 10 μM, Figure 5B
  GFP/OD630, Mean: 0.39
  GFP/OD630, individual replicates: 0.36 and 0.38 and 0.43
p75^NTR TMD; structure-activity comparison
  activity in the AraTM assay: better performance at low micromolar concentrations; also recorded: best compounds; also recorded: best compound in the 4A series
p75^NTR TMD; wt, compound 5 μM, Figure 5C-E
  GFP/OD630, Mean: 0.78
  GFP/OD630, individual replicates: 0.78 and 0.81 and 0.74
p75^NTR TMD; [1]
  GFP/OD630, Mean: 0.57
  GFP/OD630, individual replicates: 0.53 and 0.48 and 0.68
p75^NTR TMD; [2]
  GFP/OD630, Mean: 0.49
  GFP/OD630, individual replicates: 0.48 and 0.44 and 0.56
p75^NTR TMD; [3]
  GFP/OD630, Mean: 0.34
  GFP/OD630, individual replicates: 0.46 and 0.29 and 0.27
p75^NTR TMD; [4]
  GFP/OD630, Mean: 0.32
  GFP/OD630, individual replicates: 0.31 and 0.34 and 0.30
A875 shp75 cells; 0 h, Mean
  Wound area (Fold): 1.000 Fold
A875 shp75 cells; 0 h, n1
  Wound area (Fold): 0.845 Fold
A875 shp75 cells; 0 h, n2
  Wound area (Fold): 1.081 Fold
A875 shp75 cells; 0 h, n3
  Wound area (Fold): 1.074 Fold
A875 shp75 cells; 3 h, Mean
  Wound area (Fold): 0.931 Fold
A875 shp75 cells; 3 h, n1
  Wound area (Fold): 0.916 Fold
A875 shp75 cells; 3 h, n2
  Wound area (Fold): 0.940 Fold
A875 shp75 cells; 3 h, n3
  Wound area (Fold): 0.936 Fold
A875 shp75 cells; 6 h, Mean
  Wound area (Fold): 0.862 Fold
A875 shp75 cells; 6 h, n1
  Wound area (Fold): 0.849 Fold
A875 shp75 cells; 6 h, n2
  Wound area (Fold): 0.873 Fold
A875 shp75 cells; 6 h, n3
  Wound area (Fold): 0.864 Fold
A875 shp75 cells; 9 h, Mean
  Wound area (Fold): 0.807 Fold
A875 shp75 cells; 9 h, n1
  Wound area (Fold): 0.787 Fold
